Data on 42 molecules can be found in patent US6545009B1, “Retinoid-related receptor function regulating agent” (Takeda Chemical Industries, Ltd., priority 1998, dated 2003).

Molecules are shown by their SMILES. Bounds are passed on as bounds.

The term melting point denotes the temperature, or range, at which the solid turns liquid. `Br.COC(=O)c1ccc(-c2nc(-c3ccccn3)cs2)cc1` [Example 38, methyl 4-[4-(2-pyridyl)-2-thiazolyl]benzoate hydrobromide] displayed a melting point of 243 to 244 °C.

`CCOC(=O)c1ccc(-c2coc(-c3cccc(C(F)(F)F)c3)n2)cc1` [Example 20, ethyl 4-[2-(3-trifluoromethylphenyl)-4-oxazolyl]benzoate]: the melting point was in the range of 132 to 133 °C.

Molecule `Cc1cc(-c2csc(-c3ccc(C(=O)O)cc3)n2)c(C)s1` [Example 93, 4-[4-(2,5-dimethyl-3-thienyl)-2-thiazolyl]benzoic acid] gave a melting point of 239 to 240 °C.

`O=C(O)c1ccc(-c2nc(-c3cc(Cl)sc3Cl)cs2)cc1` [Example 94, 4-[4-(2,5-dichloro-3-thienyl)-2-thiazolyl]benzoic acid] returned a melting point of 266 to 267 °C.

As to `O=C(O)c1ccc(-c2coc(-c3ccccc3)n2)cc1` [Example 12, 4-(2-phenyl-4-oxazolyl]benzoic acid], the melting point was in the range of 271 to 273 °C.

Take `O=C(O)c1ccc(-c2nc(-c3ccc(OC(F)F)cc3)co2)cc1` [Example 24, 4-[4-(4-difluoromethoxylphenyl)-2-oxazolyl]benzoic acid]: the melting point lay within 261 to 262 °C.

Consider `O=C(O)c1cccc(-c2nc(-c3ccc(C(F)(F)F)cc3)cs2)c1` [Example 67, 3-[4-(4-trifluoromethylphenyl)-2-thiazolyl]benzoic acid], for which the melting point was 230 to 231 °C.

The molecule `O=C(O)c1ccc(-c2csc(-c3cccnc3)n2)cc1` [Example 54, 4-[2-(3-pyridyl)-4-thiazolyl]benzoic acid] had a melting point of over 300 °C.

`O=C(O)c1ccc(-c2nc(-c3cccc(C(F)(F)F)c3)co2)cc1` [Example 22, 4-[4-(3-trifluoromethylphenyl)-2-oxazolyl]benzoic acid] came in with a melting point of 253 to 254 °C.

`CCOc1ccc(-c2csc(-c3cccc(C(=O)OC)c3)n2)cc1` [Example 83, methyl 3-[4-(4-ethoxyphenyl)-2-thiazolyl]benzoate] returned a melting point of 192 to 193 °C.

`COC(=O)c1cccc(-c2nc(-c3ccc(OC)cc3)cs2)c1` [Example 47, methyl 3-[4-(4-methoxyphenyl)-2-thiazolyl]benzoate]: the melting point is 108 to 109 °C.

In turn, `Br.COC(=O)c1ccc(-c2nc(-c3ccncc3)cs2)cc1` [Example 35, methyl 4-[4-(4-pyridyl)-2-thiazolyl]benzoate hydrobromide] showed a melting point of 238 to 240 °C.

`O=C(O)c1ccc(-c2cnc(-c3ccc(Cl)cc3)o2)cc1` [compound 13, 4-[2-(4-chlorophenyl)-5-oxazolyl]benzoic acid] yielded a melting point of 268 to 270 °C.

As to `Cc1cc(-c2csc(-c3ccc(C(=O)O)cc3)n2)c(C)o1` [Example 91, 4-[4-(2,5-dimethyl-3-furyl)-2-thiazolyl]benzoic acid], the melting point fell in the range of 264 to 265 °C.

`COC(=O)c1ccc(-c2nc(-c3c(F)c(F)c(F)c(F)c3F)cs2)cc1` [Example 42, methyl 4-[4-(2,3,4,5,6-pentafluorophenyl)-2-thiazolyl]benzoate] registered a melting point of 141 to 142 °C.

The molecule `CC(C)(C)c1ccc(-c2csc(-c3cccc(C(=O)O)c3)n2)cc1` [Example 98, 3-[4-(4-t-butylphenyl)-2-thiazolyl]benzoic acid] yielded a melting point of 250 to 251 °C.

With `Cc1ccc(-c2csc(-c3cccc(C(=O)O)c3)n2)cc1C` [Example 88, 3-[4-(3,4-dimethylphenyl)-2-thiazolyl]benzoic acid], the melting point is 235 to 236 °C.

For `COC(=O)c1ccc(-c2nc(-c3ccc(Cl)cc3)cs2)cc1` [Example 29, methyl 4-[4-(4-chlorophenyl)-2-thiazolyl]benzoate], the melting point lay in the range of 186 to 187 °C.

On to `COC(=O)c1cccc(-c2nc(-c3ccc(C(F)(F)F)cc3)co2)c1` [Example 21, methyl 3-[4-(4-trifluoromethylphenyl)-2-oxazolyl]benzoate], for which the melting point was 151 to 152 °C.

In turn, `CCOC(=O)c1ccc(-c2ncc(-c3ccc(Cl)cc3)o2)cc1` [Example 108, ethyl 4-[5-(4-chlorophenyl)-2-oxazolyl]benzoate] gave a melting point of 195 to 197 °C.

Turning to `O=C(O)c1ccc(-c2nc(-c3ccc(Br)cc3)cs2)cc1` [Example 89, 4-[4-(4-bromophenyl)-2-thiazolyl]benzoic acid], the melting point was over 300 °C.

`COC(=O)c1ccc(-c2nc(-c3ccc(C(C)(C)C)cc3)cs2)cc1` [Example 85, methyl 4-[4-(4-t-butylphenyl)-2-thiazolyl]benzoate] gave a melting point of 154 to 155 °C.

Regarding `Cc1cc(-c2csc(-c3cccc(C(=O)O)c3)n2)c(C)s1` [Example 92, 3-[4-(2,5-dimethyl-3-thienyl)-2-thiazolyl]benzoic acid], the melting point fell in the range of 155 to 156 °C.

In turn, `CCOC(=O)c1ccc(-c2csc(-c3ccc(C(F)(F)F)cc3)n2)cc1` [Example 104, ethyl 4-[2-(4-trifluoromethylphenyl)-4-thiazolyl)benzoate] came in with a melting point of 163 to 164 °C.

In turn, `O=C(O)c1ccc(-c2coc(-c3cccc(C(F)(F)F)c3)n2)cc1` [Example 26, 4-[2-(3-trifluoromethylphenyl)-4-oxazolyl]benzoic acid] showed a melting point of 268 to 269 °C.

With `O=C(O)c1ccc(-c2coc(-c3ccc(C(F)(F)F)cc3)n2)cc1` [Example 25, 4-[2-(4-trifluoromethylphenyl)-4-oxazolyl]benzoic acid], the melting point is 294 to 295 °C.

On to `CC(C)c1ccc(-c2csc(-c3ccc(C(=O)O)cc3)n2)cc1` [Example 101, 4-[4-(4-isopropylphenyl)-2-thiazolyl]benzoic acid], for which the melting point lay within 257 to 258 °C.

`O=C(O)c1cccc(-c2nc(-c3ccc(F)cc3F)cs2)c1` [Example 69, 3-[4-(2,4-difluorophenyl)-2-thiazolyl]benzoic acid] registered a melting point of 255 to 256 °C.

As for `O=C(O)c1ccc(-c2nc(-c3cc(C(F)(F)F)cc(C(F)(F)F)c3)co2)cc1` [Example 23, 4-[4-[3,5-bis(trifluoromethyl)phenyl)-2-oxazolyl]benzoic acid], the melting point fell in the range of 277 to 279 °C.

The molecule `O=C(O)c1ccc(-c2nc(-c3ccc(Cl)s3)cs2)cc1` [Example 53, 4-[4-(5-chloro-2-thienyl)-2-thiazolyl]benzoic acid] had a melting point of 283 to 284 °C.

`COC(=O)c1cccc(-c2nc(-c3ccc(F)cc3F)cs2)c1` [Example 46, methyl 3-[4-(2,4-difluorophenyl)-2-thiazolyl]benzoate]: the melting point is 121 to 122 °C.

`COc1ccc(-c2csc(-c3cccc(C(=O)O)c3)n2)cc1` [Example 70, 3-[4-(4-methoxyphenyl)-2-thiazolyl]benzoic acid] registered a melting point of 236 to 238 °C.

Molecule `COC(=O)c1ccc(-c2nc(-c3cccc(C(F)(F)F)c3)co2)cc1` [Example 16, methyl 4-[4-(3-trifluoromethylphenyl)-2-oxazolyl]benzoate] registered a melting point of 134 to 135 °C.

With `O=C(O)c1cccc(-c2nc(-c3cccc(C(F)(F)F)c3)cs2)c1` [Example 68, 3-[4-(3-trifluoromethylphenyl)-2-thiazolyl]benzoic acid], the melting point is 229 to 230 °C.

For `CCOC(=O)c1cccc(-c2nc(-c3ccc(C(C)(C)C)cc3)cs2)c1` [Example 84, ethyl 3-[4-(4-t-butylphenyl)-2-thiazolyl]benzoate], the melting point was 96 to 97 °C.

In the case of `O=C(O)c1cccc(-c2nc(-c3ccc(Cl)cc3)cs2)c1` [compound 12, 3-[4-(4-chlorophenyl)-2-thiazolyl]benzoic acid], the melting point was in the range of 265 to 266 °C.

Regarding `CCOC(=O)c1cccc(-c2nc(-c3ccc(OCC)cc3)cs2)c1` [Example 82, ethyl 3-[4-(4-ethoxyphenyl)-2-thiazolyl]benzoate], the melting point lay within 108 to 110 °C.

For `COC(=O)c1ccc(-c2nc(-c3ccc(C(F)(F)F)cc3)co2)cc1` [Example 2, methyl 4-[4-(4-trifluoromethylphenyl)-2-oxazolyl]benzoate], the melting point lay within 182 to 183 °C.

Take `CCOC(=O)c1ccc(-c2ncc(-c3ccc(Cl)cc3)s2)cc1` [Example 112, ethyl 4-[5-(4-chlorophenyl)-2-thiazolyl]benzoate]: the melting point was 167 to 168 °C.

Consider `Br.CCOC(=O)c1ccc(-c2csc(-c3cccnc3)n2)cc1` [Example 31, ethyl 4-[2-(3-pyridyl)-4-thiazolyl]benzoate hydrobromide], for which the melting point lay in the range of 234 to 236 °C.

`CCOC(=O)c1cccc(-c2nc(-c3cc(C)sc3C)cs2)c1` [Example 78, ethyl 3-[4-(2,5-dimethyl-3-thienyl)-2-thiazolyl]benzoate] showed a melting point of 115 to 116 °C.

Consider `CCOC(=O)c1cccc(-c2nc(-c3ccc(C)c(C)c3)cs2)c1` [Example 74, ethyl 3-[4-(3,4-dimethylphenyl)-2-thiazolyl]benzoate], for which the melting point was in the range of 114 to 115 °C.
